The record followed here is patent US20140357579A1, “SYNTHETIC PEPTIDE AMIDES AND DIMERS THEREOF” (priority 2006, published 2014).

Like-named read-outs stand apart in the source and are kept apart here. Square brackets hold non-standard residues; d marks the D form. Side chains are listed from the residue outwards. Peptide text beside a SMILES is read from it. dAgb = N=C(N)NCC[C@@H](N)C(=O)O; dAgp = N=C(N)NC[C@@H](N)C(=O)O; dNle = CCCC[C@@H](N)C(=O)O; dOrn = NCCC[C@@H](N)C(=O)O; Api = NC1(C(=O)O)CCNCC1

For the experiment, the target named is T1, mouse kappa opioid receptor (mKOR) (Mus musculus, UniProt P33534).
T1 construct: a mouse thymoma cell line that expresses only the kappa-opioid receptor and no other opioid receptor subtype; host or cells: R1.G1 mouse thymoma cells
In words: Inhibition of forskolin-stimulated cAMP production in R1.G1 cells (TR-FRET cAMP immunoassay). The experiment is classed as cell-based. The note with it: for EC50: inhibition of forskolin-stimulated cAMP.

The mark [1] stands for this setting: read-out: mKOR Efficacy(%), R1.G1 cells.
Where [2] appears, read: R1.G1 cells, read-out: mKOR EC50.
The mark [3] stands for this setting: R1.G1 cells, read-out: mKOR Efficacy(%).

T1 sequence (P33534 whole entry): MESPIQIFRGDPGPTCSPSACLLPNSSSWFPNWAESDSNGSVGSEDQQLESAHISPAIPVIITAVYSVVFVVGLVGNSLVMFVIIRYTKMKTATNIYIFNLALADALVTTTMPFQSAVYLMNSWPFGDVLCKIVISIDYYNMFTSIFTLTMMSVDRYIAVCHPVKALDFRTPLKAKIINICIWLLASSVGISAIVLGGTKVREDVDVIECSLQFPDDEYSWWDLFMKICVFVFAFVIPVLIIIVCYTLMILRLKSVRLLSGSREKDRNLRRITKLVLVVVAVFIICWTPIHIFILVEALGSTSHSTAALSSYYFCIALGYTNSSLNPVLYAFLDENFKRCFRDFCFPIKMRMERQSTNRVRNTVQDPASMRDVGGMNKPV

`CC(C)C[C@@H](NC(=O)[C@H](N)Cc1ccccc1)C(=O)N[C@H](CCCN)C(=O)N[C@H](CCCCNC(=O)[C@@H](CCCN)NC(=O)[C@@H](CC(C)C)NC(=O)[C@@H](Cc1ccccc1)NC(=O)[C@H](N)Cc1ccccc1)C(=O)O` [Compound 47] came in with an EC50 (mKOR EC50 (nM), R1.G1 cells) of 0.05 nM. Also, the Emax under setting [1] was 91%.

Consider `CNCCC[C@@H](NC(=O)[C@@H](CC(C)C)NC(=O)[C@@H](Cc1ccccc1)NC(=O)[C@H](N)Cc1ccccc1)C(=O)N1CCCNCC1` [Compound 23, D-Phe-D-Phe-D-Leu-(-Me)D-Orn-[homopiperazine amide]], for which, for the setting “R1.G1 cells”, the “mKOR Efficacy(%)” value stood at 95%. Same read-out and setting: as for `CNCCC[C@@H](NC(=O)[C@@H](CC(C)C)NC(=O)[C@@H](Cc1ccccc1)NC(=O)[C@H](N)Cc1ccccc1)C(=O)N1CCCN(C(=N)N)CC1` [Compound 21, D-Phe-D-Phe-D-Leu-(δ-Me)D-Orn-[4-Amidinohomopiperazine amide]], the figure is 97%. For the setting “mKOR EC50 (nM), R1.G1 cells”, `CC(C)C[C@@H](NC(=O)[C@@H](Cc1ccccc1)NC(=O)[C@H](N)Cc1ccccc1)C(=O)N[C@H](CNC(=N)N)C(=O)NC1(C(=O)O)CCN(C(=O)[C@@H](CNC(=N)N)NC(=O)[C@@H](CC(C)C)NC(=O)[C@@H](Cc2ccccc2)NC(=O)[C@H](N)Cc2ccccc2)CC1` [Compound 50] (H-[dF][dF][dL][dAgp][Api]([dAgp-dL-dF-dF])-OH) registered an EC50 of 56.7 nM. Moreover, the Emax under setting [1] was 77%. The matching figures for `CC(C)C[C@@H](NC(=O)[C@@H](Cc1ccccc1)NC(=O)[C@H](N)Cc1ccccc1)C(=O)N[C@H](CCNC(=N)N)C(=O)NC1(C(=O)O)CCN(C(=O)[C@@H](CCNC(=N)N)NC(=O)[C@@H](CC(C)C)NC(=O)[C@@H](Cc2ccccc2)NC(=O)[C@H](N)Cc2ccccc2)CC1` [Compound 51, 1N,4N-bis-(D-Phe-D-Phe-D-Leu-D-Nar)-4amino-4carboxylic piperidine] (H-[dF][dF][dL][dAgb][Api]([dAgb-dL-dF-dF])-OH): 95.8 nM and 60%. On to `CCCC[C@@H](NC(=O)[C@@H](Cc1ccccc1)NC(=O)[C@H](N)Cc1ccccc1)C(=O)N[C@H](CCCNC(=N)N)C(=O)N1CCC[C@@H]1C(=O)O` [Compound 3, D-Phe-D-Phe-D-Nle-D-Arg-D-Pro-OH] (H-[dF][dF][dNle][dR][dP]-OH; N-terminus assumed), for which the “mKOR Efficacy(%)” value (R1.G1 cells) was 88%.

Where the note is “mKOR EC50 (nM), R1.G1 cells”, `CC(C)C[C@@H](NC(=O)[C@@H](Cc1ccccc1)NC(=O)[C@H](N)Cc1ccccc1)C(=O)N[C@H](CCCN)C(=O)NCCCC[C@@H](NC(=O)[C@@H](CCCN)NC(=O)[C@@H](CC(C)C)NC(=O)[C@@H](Cc1ccccc1)NC(=O)[C@H](N)Cc1ccccc1)C(=O)O` [Compound 48] (H-[dF][dF][dL][dOrn][dK]([dOrn-dL-dF-dF])-OH) displayed an EC50 of 0.34 nM. Also, the Emax under setting [1] was found to be 85%. As to `CC(C)C[C@@H](NC(=O)[C@@H](Cc1ccccc1)NC(=O)[C@H](N)Cc1ccccc1)C(=O)N[C@H](CCCNC(C)C)C(=O)N1CCCNCC1` [Compound 24, D-Phe-D-Phe-D-Leu-(6-iPr)D-Orn-[homopiperazine amide]], the “mKOR Efficacy(%)” value (R1.G1 cells) stood at 96%. Still for that read-out and setting: in the case of `CC(C)C[C@@H](NC(=O)[C@@H](Cc1ccccc1)NC(=O)[C@H](N)Cc1ccccc1)C(=O)N[C@H](CCCN)C(=O)NC1CCN(CC(N)=O)CC1` [Compound 15, D-Phe-D-Phe-D-Leu-D-Orn-[4-Amino-1-carboxymethyl-piperidine]-NH2] it was 93%. With `CC(C)C[C@@H](N)C(=O)N[C@H](CCCN)C(=O)N[C@@H](CCCCNC(=O)[C@@H](CCCN)NC(=O)[C@@H](CC(C)C)NC(=O)[C@@H](Cc1ccccc1)NC(=O)[C@H](N)Cc1ccccc1)C(=O)O` [Compound 39, D-Phe-D-Phe-D-Leu-D-Orn-[eLys(D-Orn-D-Leu-H)]-OH], the EC50 under setting [2] turned out to be 67.3 nM. Also, the Emax under setting [3] is 35%. On the same counts, the results for `CC(C)C[C@@H](N)C(=O)N[C@H](CCCN)C(=O)N[C@H](CCCCNC(=O)[C@@H](CCCN)NC(=O)[C@@H](CC(C)C)NC(=O)[C@@H](Cc1ccccc1)NC(=O)[C@H](N)Cc1ccccc1)C(=O)O` [Compound 46] are 0.12 nM and 95%.
